From patent US8334294B2, “4,8-diphenyl-polyazanaphthalene derivatives” (Almirall, S.A., priority 2007, dated 2012)

What follows are compounds tested against T1, human p38alfa (SAPKa) enzyme (Homo sapiens, UniProt Q16539) (assay: p38 enzymatic activity inhibition assay (FRET, ATF2 substrate)). Conditions: 1 h pre-incubation; ATF2 0.62 μM, ATP 60 μM; 1 h at 25° C.; read-out: p38α IC50.
T1 construct: purchased University of Dundee
Assay type: biochemical
Procedure: Enzymatic activity assay was performed in 96-well microtiter plates (Corning, catalog number #3686) using a total volume of 50 μl of an assay buffer composed of 50 mM HEPES pH 7.5, 10 mM MgCl2, 1.75 mM Na3VO4.
Various concentrations of the test compound or vehicle controls were pre-incubated for one hour with 0.055 μg/ml of the human p38alfa (SAPKa) enzyme (obtained from University of Dundee). The reaction started by addition of biotinylated ATF2 substrate and ATP in concentrations around their Km values (final concentration 0.62 μM and 60 μM respectively) and took place for one hour at 25° C. Addition of the detection reagents, streptavidin-XL665 and anti-phosphoresidue antibody coupled to Europium cryptate, caused the juxtaposition of the cryptate and the XL665 fluorophore, resulting in fluorescence energy transfer (FRET). The FRET intensity depends on the amount of bounded cryptate antibody, which is proportional to the extent of substrate phosphorylation. FRET intensity was measured using Victor 2V spectrofluorometer. Data were analyzed by non-linear regression (Hill equation) to generate a dose-response curve. The calculated IC50 value is the concentration of the test compound that caused a 50% decrease in the maximal FRET intensity.

T1 sequence (Q16539 whole entry): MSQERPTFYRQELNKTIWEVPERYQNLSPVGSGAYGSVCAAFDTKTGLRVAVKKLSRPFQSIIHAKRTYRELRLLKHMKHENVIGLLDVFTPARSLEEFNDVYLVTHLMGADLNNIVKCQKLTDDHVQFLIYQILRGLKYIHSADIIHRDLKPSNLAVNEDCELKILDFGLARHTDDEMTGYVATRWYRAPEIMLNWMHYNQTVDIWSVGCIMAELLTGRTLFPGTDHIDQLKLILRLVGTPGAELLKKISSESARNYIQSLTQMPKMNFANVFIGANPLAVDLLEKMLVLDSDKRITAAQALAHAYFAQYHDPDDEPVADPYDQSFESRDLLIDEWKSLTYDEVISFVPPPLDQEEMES

SMILES | IC50
O=C(O)c1cc(-c2ccc(F)cc2F)c2cc[n+]([O-])c(-c3c(F)cccc3F)c2n1 [Example 2, 4-(2,4-Difluorophenyl)-8-(2,6-difluorophenyl)-1,7-naphthyridine-2-carboxylic acid 7-oxide] | 22 nM
O=c1cc(-c2ccc(F)cc2Cl)c2cc[n+]([O-])c(-c3c(F)cccc3F)c2[nH]1 [Example 8, 4-(2-Chloro-4-fluorophenyl)-8-(2,6-difluorophenyl)-1,7-naphthyridin-2(1H)-one 7-oxide] | 6 nM
CN(C)CCNc1cc(-c2ccc(F)cc2Cl)c2cc[n+]([O-])c(-c3c(F)cccc3F)c2n1 [Example 10, N′-[4-(2-Chloro-4-fluorophenyl)-8-(2,6-difluorophenyl)-7-oxido-1,7-naphthyridin-2-yl]-N,N-dimethylethane-1,2-diamine] | 14 nM
O=c1cc(-c2ccc(F)cc2Cl)c2cc[n+]([O-])c(-c3c(Cl)cccc3Cl)c2[nH]1 [Example 12, 4-(2-Chloro-4-fluorophenyl)-8-(2,6-dichlorophenyl)-1,7-naphthyridin-2(1H)-one 7-oxide] | 3.3 nM
O=c1cc(-c2ccccc2Cl)c2ccnc(-c3c(Cl)cccc3Cl)c2[nH]1 [Example 17, 4-(2-Chlorophenyl)-8-(2,6-dichlorophenyl)-1,7-naphthyridin-2(1H)-one] | 13 nM
O=c1cc(-c2ccccc2Cl)c2cc[n+]([O-])c(-c3c(Cl)cccc3Cl)c2[nH]1 [Example 18, 4-(2-Chlorophenyl)-8-(2,6-dichlorophenyl)-1,7-naphthyridin-2(1H)-one 7-oxide] | 15 nM
CNc1cc(-c2ccccc2Cl)c2cc[n+]([O-])c(-c3c(Cl)cccc3Cl)c2n1 [Example 19, 4-(2-Chlorophenyl)-8-(2,6-dichlorophenyl)-N-methyl-1,7-naphthyridin-2-amine 7-oxide] | 8 nM

Now from value to compound:

IC50 | SMILES
12 nM | CN(C)c1cc(-c2ccccc2Cl)c2cc[n+]([O-])c(-c3c(Cl)cccc3Cl)c2n1 [Example 20, 4-(2-Chlorophenyl)-8-(2,6-dichlorophenyl)-N,N-dimethyl-1,7-naphthyridin-2-amine 7-oxide]
66 nM | CS(=O)(=O)Nc1cc(-c2ccccc2Cl)c2cc[n+]([O-])c(-c3c(Cl)cccc3Cl)c2n1 [Example 21, N-[4-(2-Chlorophenyl)-8-(2,6-dichlorophenyl)-7-oxido-1,7-naphthyridin-2-yl]methanesulfonamide]
85 nM | Nc1cc(-c2ccccc2Cl)c2cc[n+]([O-])c(-c3c(Cl)cccc3Cl)c2n1 [Example 22, 4-(2-Chlorophenyl)-8-(2,6-dichlorophenyl)-1,7-naphthyridin-2-amine 7-oxide]
35 nM | [O-][n+]1ccc2c(-c3ccc(F)cc3Cl)ncnc2c1-c1c(F)cccc1F [Example 26, 4-(2-Chloro-4-fluorophenyl)-8-(2,6-difluorophenyl)pyrido[3,4-d]pyrimidine 7-oxide]
28 nM | [O-][n+]1ccc2c(-c3ccc(F)cc3Cl)ncnc2c1-c1c(Cl)cccc1Cl [Example 30, 4-(2-Chloro-4-fluorophenyl)-8-(2,6-dichlorophenyl)pyrido[3,4-d]pyrimidine 7-oxide]
34 nM | Nc1nc(-c2ccc(F)cc2Cl)c2cc[n+]([O-])c(-c3c(Cl)cccc3Cl)c2n1 [Example 32, 4-(2-Chloro-4-fluorophenyl)-8-(2,6-dichlorophenyl)pyrido[3,4-d]pyrimidin-2-amine 7-oxide]
